From patent US11884647B2, “Compounds and methods for targeting pathogenic blood vessels” (THE REGENTS OF THE UNIVERSITY OF CALIFORNIA, priority 2019, dated 2024) come the findings set out here.

In experiment [1] the test system is tumor endothelial cells (CT26.CL25 colon cancer tumor). The experiment can be described thus: Colon CT26 ex vivo model of tumor angiogenesis. It is filed as cell-based. Conditions: Mus musculus, CT26, 48 h, read-out: Cell death. The procedure, abridged: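 Explant pieces of CT26 tumor (about 0.075 mm^3) were embedded in Matrigel and grown in endothelial growth medium at 37 °C for about 7 days until endothelial outgrowth appeared, then treated. Cell death was read about 48 h after drug addition by fluorescein diacetate (live) and propidium iodide (dead) staining with red/green imaging.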

Experiment [2] has as its system tumor endothelial cells (LL/2 lung cancer tumor). The experiment can be described thus: Lung LL2 ex vivo model of tumor angiogenesis. The format is cell-based, mouse. Conditions: for cytotoxicity at 20 µM / cytotoxicity at 40 µM: Mus musculus, Endothelial cell, 48 h, read-out: Cell death; for Cell death: Lung LL2 ex vivo, Conc. 40 μm, drug treatment two days. The procedure, abridged: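 Mouse LL2 tumor fragments (~0.5×0.5×0.3 mm) embedded in Matrigel and grown in endothelial growth medium at 37° C until endothelial outgrowth (about 4 days) before drug treatment. About 48 h after drug addition, stained 10 min with fluorescein diacetate/propidium iodide; live (green) and dead (red) cells imaged at 2× with fixed channel settings.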

Take `CCCCOc1ccc(S(=O)(=O)c2cnc3ccc(OC(F)(F)F)cc3c2N2CCC(N3CCCCC3)CC2)cc1` [compound 119, 4-([1,4′-bipiperidin]-1′-yl)-3-((4-butoxyphenyl)sulfonyl)-6-(trifluoromethoxy)quinoline]: the cytotoxicity at 20 µM in experiment [1] came to 50%; in experiment [2], 100%.
For `COc1ccc(S(=O)(=O)c2cnc3ccc(SC)cc3c2N2CCC(N3CCCCC3)CC2)cc1OC` [compound 121, 4-([1,4′-bipiperidin]-1′-yl)-3-((3,4-dimethoxyphenyl)sulfonyl)-6-(methylthio)quinoline], the cytotoxicity at 40 µM came out at 40% in experiment [1] and 50% in experiment [2].
In the case of `CCCCOc1ccc(S(=O)(=O)c2cnc3ccc(OC(F)(F)F)cc3c2N2CCCN(C)CC2)cc1` [compound 151, 3-((4-butoxyphenyl)sulfonyl)-4-(4-methyl-1,4-diazepan-1-yl)-6-(trifluoromethoxy)quinoline], the cytotoxicity at 40 µM in experiment [1] and in experiment [2] was 100% each time.
For `CCCCOc1ccc(S(=O)(=O)c2cnc3ccc(OC(F)(F)F)cc3c2N2CCC(N3CCC(O)CC3)CC2)cc1` [compound 152, 1′-(3-((4-butoxyphenyl)sulfonyl)-6-(trifluoromethoxy)quinolin-4-yl)-[1,4′-bipiperidin]-4-ol], the cytotoxicity at 40 µM in experiment [1] amounted to 30%. In addition, in experiment [2], the cytotoxicity at 20 µM came out at 20%.
Take `COc1ccc(S(=O)(=O)c2cnc3ccc(SC)cc3c2N2CCCN(C)CC2)cc1OC` [compound 154, 3-((3,4-dimethoxyphenyl)sulfonyl)-4-(4-methyl-1,4-diazepan-1-yl)-6-(methylthio)quinoline]: the cytotoxicity at 40 µM in experiment [1] and in experiment [2] was 30% each time.
Consider `CCCCN(CCCC)c1c(S(=O)(=O)c2ccc(OC)cc2)cnc2ccc(C(=O)OCC)cc12` [compound 155, ethyl 4-(dibutylamino)-3-((4-methoxyphenyl)sulfonyl)quinoline-6-carboxylate], for which the cytotoxicity at 40 µM in experiment [1] was determined as 20%. The molecule also came in with a Cell death in experiment [2] of 80%.
Turning to `CCOC(=O)c1ccc2ncc(S(=O)(=O)c3ccc(OC)cc3)c(N(CCO)CCO)c2c1` [compound 156, ethyl 4-(bis(2-hydroxyethyl)amino)-3-((4-methoxyphenyl)sulfonyl)quinoline-6-carboxylate], in experiment [1], the cytotoxicity at 40 µM worked out at 0%. Moreover, the Cell death in experiment [2] stood at 30%.
Turning to `CCCCOc1ccc(S(=O)(=O)c2cnc3ccc(C(=O)OCC)cc3c2N2CCC(N3CCCCC3)CC2)cc1` [compound 157, ethyl 4-([1,4′-bipiperidin]-1′-yl)-3-((4-butoxyphenyl)sulfonyl)quinoline-6-carboxylate], the results for the cytotoxicity at 40 µM in experiment [1] and in experiment [2] were 60% and 100%, respectively.
As to `CCCCOc1ccc(S(=O)(=O)c2cnc3ccc(C(=O)OCC)cc3c2N2CCCN(C)CC2)cc1` [compound 158, ethyl 3-((4-butoxyphenyl)sulfonyl)-4-(4-methyl-1,4-diazepan-1-yl)quinoline-6-carboxylate], the cytotoxicity at 40 µM in experiment [1] and in experiment [2] was 100% each time.
With `CCCCOc1ccc(S(=O)(=O)c2cnc3ccc(SC)cc3c2N2CCC(N3CCCCC3)CC2)cc1` [compound 159, 4-([1,4′-bipiperidin]-1′-yl)-3-((4-butoxyphenyl)sulfonyl)-6-(methylthio)quinoline], the cytotoxicity at 40 µM in experiment [1] and in experiment [2] was 100% throughout.
For the molecule `CCCCOc1ccc(S(=O)(=O)c2cnc3ccc(SC)cc3c2N2CCCN(C)CC2)cc1` [compound 160, 3-((4-butoxyphenyl)sulfonyl)-4-(4-methyl-1,4-diazepan-1-yl)-6-(methylthio)quinoline], the cytotoxicity at 40 µM in experiment [1] and in experiment [2] was 100% each time.
Regarding `CCCCOc1ccc(S(=O)(=O)c2cnc3ccc(C(=O)OCC)cc3c2N2CCC(N3CCC(O)CC3)CC2)cc1` [compound 161, ethyl 3-((4-butoxyphenyl)sulfonyl)-4-(4-hydroxy-[1,4′-bipiperidin]-1′-yl)quinoline-6-carboxylate], the cytotoxicity at 40 µM came to 100% in experiment [1] and 90% in experiment [2].
Regarding `CCCCOc1ccc(S(=O)(=O)c2cnc3ccc([S+](C)[O-])cc3c2N2CCCN(C)CC2)cc1` (stereo not drawn) [compound 163, 3-((4-butoxyphenyl)sulfonyl)-4-(4-methyl-1,4-diazepan-1-yl)-6-(methylsulfinyl)quinoline], the cytotoxicity at 40 µM in experiment [1] was 100%; in experiment [2], 95%.
Taken in the same sequence, the figures for `CCCCOc1ccc(S(=O)(=O)c2cnc3ccc(S(C)(=O)=O)cc3c2N2CCCN(C)CC2)cc1` [compound 164, 3-((4-butoxyphenyl)sulfonyl)-4-(4-methyl-1,4-diazepan-1-yl)-6-(methylsulfonyl)quinoline] were 100% and 95%.
On the same counts, the results for `CCN(CC)C(=O)c1ccc2ncc(S(=O)(=O)c3ccc(OC)cc3)c(N3CCCN(C)CC3)c2c1` [compound 165, N,N-diethyl-3-((4-methoxyphenyl)sulfonyl)-4-(4-methyl-1,4-diazepan-1-yl)quinoline-6-carboxamide] are 10% and 10%.
As for `CCN(CC)CCNC(=O)c1ccc2ncc(S(=O)(=O)c3ccc(OC)cc3)c(N3CCCN(C)CC3)c2c1` [compound 166, N-(2-(diethylamino)ethyl)-3-((4-methoxyphenyl)sulfonyl)-4-(4-methyl-1,4-diazepan-1-yl)quinoline-6-carboxamide], the cytotoxicity at 40 µM in experiment [1] worked out at 60%; in experiment [2], 10%.
As for `CCCCOc1ccc(S(=O)(=O)c2cnc3ccc(C(=O)OCC)cc3c2N2CCSCC2)cc1` [compound 191, ethyl 3-((4-butoxyphenyl)sulfonyl)-4-thiomorpholinoquinoline-6-carboxylate], the cytotoxicity at 40 µM in experiment [1] was 10%; in experiment [2], 30%.
`CCCCOc1ccc(S(=O)(=O)c2cnc3ccc(C(=O)NC(C)C)cc3c2N2CCCN(C)CC2)cc1` [compound 192, 3-((4-butoxyphenyl)sulfonyl)-N-isopropyl-4-(4-methyl-1,4-diazepan-1-yl)quinoline-6-carboxamide]: the cytotoxicity at 40 µM in experiment [1] worked out at 10%; in experiment [2] it was 60%.
As to `CCCCOc1ccc(S(=O)(=O)c2cnc3ccc(C(=O)N(CC)CC)cc3c2N2CCC(N3CCCCC3)CC2)cc1` [compound 201, 4-([1,4′-bipiperidin]-1′-yl)-3-((4-butoxyphenyl)sulfonyl)-N,N-diethylquinoline-6-carboxamide], the cytotoxicity at 40 µM in experiment [1] turned out to be 10%; in experiment [2], 30%.
In the case of `CCCCOc1ccc(S(=O)(=O)c2cnc3ccc(C(=O)NCCO)cc3c2N2CCC(N3CCCCC3)CC2)cc1` [compound 202, 4-([1,4′-bipiperidin]-1′-yl)-3-((4-butoxyphenyl)sulfonyl)-N-(2-hydroxyethyl)quinoline-6-carboxamide], in experiment [1], the cytotoxicity at 40 µM was found to be 10%. Also, in experiment [2], the Cell death is listed as 30%.
On to `CCCCOc1ccc(S(=O)(=O)c2cnc3ccc(SC)cc3c2N2CCCN(CCN3CCCCC3)CC2)cc1` [compound 206, 3-((4-butoxyphenyl)sulfonyl)-6-(methylthio)-4-(4-(2-(piperidin-1-yl)ethyl)-1,4-diazepan-1-yl)quinoline], for which the cytotoxicity at 40 µM in experiment [1] came to 100%. Also, in experiment [2], the cytotoxicity at 20 µM is 30%.
Consider `CCCCOc1ccc(S(=O)(=O)c2cnc3ccc([S+](C)[O-])cc3c2N2CCC(N3CCCC(O)C3)CC2)cc1` (stereo not drawn) [compound 208, 1′-(3-((4-butoxyphenyl)sulfonyl)-6-(methylsulfinyl)quinolin-4-yl)-[1,4′-bipiperidin]-3-ol], for which the cytotoxicity at 40 µM in experiment [1] was 20%; in experiment [2] it was 50%.
`CCCCOc1ccc(S(=O)(=O)c2cnc3ccc([S+](C)[O-])cc3c2N2CCCN(CCN3CCCCC3)CC2)cc1` (stereo not drawn) [compound 209, 3-((4-butoxyphenyl)sulfonyl)-6-(methylsulfinyl)-4-(4-(2-(piperidin-1-yl)ethyl)-1,4-diazepan-1-yl)quinoline]: the cytotoxicity at 40 µM in experiment [1] is 90%; in experiment [2] it was 60%.
Turning to `CCCCOc1ccc(S(=O)(=O)c2cnc3ccc([S+](C)[O-])cc3c2N2CCCN(CCN3CCCC3)CC2)cc1` (stereo not drawn) [compound 210, 3-((4-butoxyphenyl)sulfonyl)-6-(methylsulfinyl)-4-(4-(2-(pyrrolidin-1-yl)ethyl)-1,4-diazepan-1-yl)quinoline], the cytotoxicity at 40 µM is 70% in experiment [1] and 50% in experiment [2].
Taken in the same sequence, the figures for `CCCCOc1ccc(S(=O)(=O)c2cnc3ccc(C(=O)OCC)cc3c2N2CCC(N3CCCN(C)CC3)CC2)cc1` [compound 211, ethyl 3-((4-butoxyphenyl)sulfonyl)-4-(4-(4-methyl-1,4-diazepan-1-yl)piperidin-1-yl)quinoline-6-carboxylate] were 100% and 100%.
On to `CCCCOc1ccc(S(=O)(=O)c2cnc3ccc(C(=O)OCC)cc3c2N2CCC(N3CCOCC3)CC2)cc1` [compound 212, ethyl 3-((4-butoxyphenyl)sulfonyl)-4-(4-morpholinopiperidin-1-yl)quinoline-6-carboxylate], for which the cytotoxicity at 40 µM stood at 10% in experiment [1] and 50% in experiment [2].
For `CCCCOc1ccc(S(=O)(=O)c2cnc3ccc(C(=O)OCC)cc3c2N2CCC(N3CCN(CCO)CC3)CC2)cc1` [compound 214, ethyl 3-((4-butoxyphenyl)sulfonyl)-4-(4-(4-(2-hydroxyethyl)piperazin-1-yl)piperidin-1-yl)quinoline-6-carboxylate], the cytotoxicity at 40 µM in experiment [1] and in experiment [2] was 100% each time.
